Reference: patent US10406146B2, “Heterocyclic compound” (TAKEDA PHARMACEUTICAL COMPANY LIMITED, priority 2015, dated 2019)

How the values were obtained:
Format in all cases: biochemical
[1] = molecular target: T1, HDAC6 enzyme (Homo sapiens, UniProt Q9UBN7); test: HDAC6 enzyme inhibitory assay (HDAC-Glo I/II Assay kit); details: wells without enzyme = 100% inhibition; for inhibition at 1 µM: read-out: HDAC6 inhibitory rate (%) (1 μM)
T1 construct: transducing full length HDAC1 and HDAC6 genes into Sf-9 insect cells; GST; purchased SignalChem; host or cells: Sf-9 insect cells
T1 sequence (Q9UBN7 1-1215): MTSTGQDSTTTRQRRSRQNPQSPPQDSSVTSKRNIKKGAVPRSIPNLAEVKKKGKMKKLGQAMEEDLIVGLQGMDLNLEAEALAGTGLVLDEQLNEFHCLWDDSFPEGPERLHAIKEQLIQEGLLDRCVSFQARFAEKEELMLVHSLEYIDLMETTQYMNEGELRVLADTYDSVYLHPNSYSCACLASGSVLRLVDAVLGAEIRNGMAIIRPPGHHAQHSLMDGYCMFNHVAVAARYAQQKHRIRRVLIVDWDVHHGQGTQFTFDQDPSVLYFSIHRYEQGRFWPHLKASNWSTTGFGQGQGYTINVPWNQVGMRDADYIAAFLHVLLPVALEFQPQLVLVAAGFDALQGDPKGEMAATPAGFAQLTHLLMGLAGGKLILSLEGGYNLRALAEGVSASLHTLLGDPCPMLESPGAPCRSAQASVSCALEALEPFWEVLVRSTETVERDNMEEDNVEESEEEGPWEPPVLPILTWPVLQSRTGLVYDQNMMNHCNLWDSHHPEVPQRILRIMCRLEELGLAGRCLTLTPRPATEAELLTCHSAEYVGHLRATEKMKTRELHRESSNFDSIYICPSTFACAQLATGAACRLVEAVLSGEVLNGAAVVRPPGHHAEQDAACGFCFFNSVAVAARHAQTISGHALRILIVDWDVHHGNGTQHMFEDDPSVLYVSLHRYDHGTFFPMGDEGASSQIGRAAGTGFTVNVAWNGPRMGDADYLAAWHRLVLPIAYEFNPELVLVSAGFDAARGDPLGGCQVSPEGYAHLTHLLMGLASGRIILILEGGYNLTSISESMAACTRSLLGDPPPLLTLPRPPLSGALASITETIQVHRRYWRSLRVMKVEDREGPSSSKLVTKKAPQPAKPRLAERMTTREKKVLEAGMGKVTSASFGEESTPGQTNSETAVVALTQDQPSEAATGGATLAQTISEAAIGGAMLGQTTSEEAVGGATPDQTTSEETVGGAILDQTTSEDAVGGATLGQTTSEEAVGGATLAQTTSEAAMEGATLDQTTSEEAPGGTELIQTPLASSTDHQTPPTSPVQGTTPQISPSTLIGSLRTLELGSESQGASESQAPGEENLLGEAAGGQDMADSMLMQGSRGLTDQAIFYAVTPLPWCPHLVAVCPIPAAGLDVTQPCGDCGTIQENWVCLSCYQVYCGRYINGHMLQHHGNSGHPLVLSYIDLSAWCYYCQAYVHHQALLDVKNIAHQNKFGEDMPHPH
Experimental: (§1) HDAC1/6 Enzyme Inhibitory Assay
(§2) HDAC1 enzyme and HDAC6 enzyme each prepared by transducing full length HDAC1 and HDAC6 genes into Sf-9 insect cells and purifying by GST affinity column were purchased from SignalChem. Using these enzymes, HDAC1 and/or HDAC6 enzyme inhibitory activities of the compound of the present invention were evaluated. Enzymes were used after preserved at −70° C. HDAC1 or HDAC6 enzyme inhibitory activity of the compound of the present invention was measured using HDAC-Glo™ I/II Assay kit (Promega) according to the following experimental method. The test compound diluted with assay buffer (24 mM Tris-HCl (pH 7.5), 1 mM MgCl2, 0.35 mM KCl, 135 mM NaCl, 0.6 mM Glutathione, 0.01% Tween-20) was added to a 384-well plate by each 2 μL. Then, HDAC1 or HDAC6 enzyme solution diluted with assay buffer was added thereto by each 4 μL, and the plate was incubated at room temperature for 60 min. After incubated, HDAC substrate-Developer solution prepared according to Promega protocol attached to the assay kit was added to the 384-well plate by each 2 μL, and the enzyme reaction was started. After reacting at room temperature for 20 min, luminescence level was measured using plate reader Envision (PerkinElmer). The inhibitory activity of each compound was calculated as a relative activity value when luminescence level in wells without enzyme is considered as 100% inhibition.

[2] = molecular target: T2, HDAC9 enzyme (Homo sapiens, UniProt Q9UKV0); test: HDAC9 enzyme inhibitory assay (HDAC-Glo class IIa); details: wells without enzyme = 100% inhibition; for inhibition at 1 µM: read-out: HDAC9 inhibitory rate (%) (1 μM)
T2 construct: transducing full length HDAC9 gene into Sf-9 insect cells; made in house; host or cells: Sf-9 insect cells
T2 sequence (Q9UKV0 whole entry, species assumed): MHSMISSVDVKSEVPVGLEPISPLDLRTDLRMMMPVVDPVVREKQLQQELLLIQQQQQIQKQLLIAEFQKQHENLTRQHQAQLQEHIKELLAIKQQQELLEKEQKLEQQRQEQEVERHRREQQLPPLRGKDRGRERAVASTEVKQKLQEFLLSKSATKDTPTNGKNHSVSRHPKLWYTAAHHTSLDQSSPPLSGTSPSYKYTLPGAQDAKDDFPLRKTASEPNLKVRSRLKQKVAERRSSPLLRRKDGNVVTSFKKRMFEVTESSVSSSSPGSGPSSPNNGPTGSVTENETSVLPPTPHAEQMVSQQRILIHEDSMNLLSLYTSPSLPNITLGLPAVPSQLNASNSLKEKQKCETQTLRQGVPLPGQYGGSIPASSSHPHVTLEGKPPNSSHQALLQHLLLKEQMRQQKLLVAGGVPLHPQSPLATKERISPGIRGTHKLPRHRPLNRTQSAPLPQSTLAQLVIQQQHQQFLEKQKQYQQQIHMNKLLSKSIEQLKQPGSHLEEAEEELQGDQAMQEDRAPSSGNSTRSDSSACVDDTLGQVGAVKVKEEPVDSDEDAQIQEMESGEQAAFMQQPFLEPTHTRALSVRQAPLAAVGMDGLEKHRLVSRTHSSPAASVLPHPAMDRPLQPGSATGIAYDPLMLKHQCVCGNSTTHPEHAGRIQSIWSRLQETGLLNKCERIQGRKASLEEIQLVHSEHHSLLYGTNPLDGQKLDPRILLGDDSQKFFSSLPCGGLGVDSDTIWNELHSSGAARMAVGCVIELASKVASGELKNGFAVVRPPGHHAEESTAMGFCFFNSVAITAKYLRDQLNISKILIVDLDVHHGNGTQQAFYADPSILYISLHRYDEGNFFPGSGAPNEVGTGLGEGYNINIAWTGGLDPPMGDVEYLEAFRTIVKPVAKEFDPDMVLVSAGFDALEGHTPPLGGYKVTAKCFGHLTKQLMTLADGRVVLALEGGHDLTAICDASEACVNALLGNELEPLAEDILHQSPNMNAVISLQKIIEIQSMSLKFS
Experimental: HDAC9 Enzyme Inhibitory Assay
Enzyme was prepared by transducing full length HDAC9 gene into Sf-9 insect cells and purifying by Ni-NTA affinity column, and HDAC9 enzyme inhibitory activity was evaluated. Enzymes were used after preserved at −70° C. HDAC9 enzyme inhibitory activity of the test compound was measured using HDAC-Glo class IIa (Promega) according to the following experimental method. The test compound diluted with assay buffer (24 mM Tris-HCl (pH 7.5), 1 mM MgCl2, 0.35 mM KCl, 135 mM NaCl, 0.6 mM Glutathione, 0.01% Tween-20) was added to a 384-well plate by each 2 μL. Then, HDAC9 enzyme solution diluted with assay buffer was added thereto by each 2 μL, and the plate was incubated at room temperature for 60 min. After incubated, HDAC substrate-Developer solution prepared according to Promega protocol was added to the 384-well plate by each 4 μL, and the enzyme reaction was started. After reacting at room temperature for 20 min, luminescence level was measured using plate reader Envision (PerkinElmer). The inhibitory activity of each compound was calculated as a relative activity value when luminescence level in wells without enzyme is considered as 100% inhibition.

[3] = molecular target: T3, HDAC1 enzyme (Homo sapiens, UniProt Q13547); test: HDAC1 enzyme inhibitory assay (HDAC-Glo I/II Assay kit); details: wells without enzyme = 100% inhibition; for inhibition at 1 µM: read-out: HDAC1 inhibitory rate (%) (1 μM)
T3 construct: transducing full length HDAC1 and HDAC6 genes into Sf-9 insect cells; GST; purchased SignalChem; host or cells: Sf-9 insect cells
T3 sequence (Q13547 whole entry): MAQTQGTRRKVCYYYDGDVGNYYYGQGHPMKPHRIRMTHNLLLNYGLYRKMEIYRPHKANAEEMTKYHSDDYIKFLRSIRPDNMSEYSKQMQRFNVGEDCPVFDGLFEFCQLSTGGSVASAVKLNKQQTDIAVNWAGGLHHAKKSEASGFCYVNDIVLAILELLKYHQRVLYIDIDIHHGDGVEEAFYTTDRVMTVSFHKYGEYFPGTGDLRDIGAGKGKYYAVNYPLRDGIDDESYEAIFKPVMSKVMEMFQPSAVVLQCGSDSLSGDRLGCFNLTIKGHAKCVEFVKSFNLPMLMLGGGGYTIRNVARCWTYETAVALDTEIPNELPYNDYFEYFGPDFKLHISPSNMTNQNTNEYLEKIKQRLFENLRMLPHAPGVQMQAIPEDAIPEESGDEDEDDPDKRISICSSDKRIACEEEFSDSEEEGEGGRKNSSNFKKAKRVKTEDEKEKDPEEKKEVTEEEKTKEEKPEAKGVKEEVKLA
Experimental: as §1, §2

SMILES	inhibition at 1 µM [1]	inhibition at 1 µM [2]	inhibition at 1 µM [3]	HDAC6 inhibitory rate (%) (1 μM) [1]	HDAC9 inhibitory rate (%) (1 μM) [2]	HDAC1 inhibitory rate (%) (1 μM) [3]
O=C(NCC1CCCCN1C(=O)Nc1ccc(-c2noc(C(F)(F)F)n2)cc1)c1cccc(C(F)(F)F)c1 (stereo not drawn) [Example 17, 2-(((3-(trifluoromethyl)benzoyl)amino)methyl)-N-(4-(5-(trifluoromethyl)-1,2,4-oxadiazol-3-yl)phenyl)piperidine-1-carboxamide]	1%	80%	4%			
O=C(NCC1CCCCN1C(=O)Nc1ccc(-c2noc(C(F)(F)F)n2)cc1)c1ccc(C(F)(F)F)cc1 (stereo not drawn) [Example 18, 2-(((4-(trifluoromethyl)benzoyl)amino)methyl)-N-(4-(5-(trifluoromethyl)-1,2,4-oxadiazol-3-yl)phenyl)piperidine-1-carboxamide]	2%	39%	-7%			
N#Cc1ccccc1C(=O)NCC1CCCCN1C(=O)Nc1ccc(-c2noc(C(F)(F)F)n2)cc1 (stereo not drawn) [Example 19, 2-(((2-cyanobenzoyl)amino)methyl)-N-(4-(5-(trifluoromethyl)-1,2,4-oxadiazol-3-yl)phenyl)piperidine-1-carboxamide]	2%	72%	15%			
N#Cc1cccc(C(=O)NCC2CCCCN2C(=O)Nc2ccc(-c3noc(C(F)(F)F)n3)cc2)c1 (stereo not drawn) [Example 20, 2-(((3-cyanobenzoyl)amino)methyl)-N-(4-(5-(trifluoromethyl)-1,2,4-oxadiazol-3-yl)phenyl)piperidine-1-carboxamide]	4%	95%	32%			
N#Cc1ccc(C(=O)NCC2CCCCN2C(=O)Nc2ccc(-c3noc(C(F)(F)F)n3)cc2)cc1 (stereo not drawn) [Example 21, 2-(((4-cyanobenzoyl)amino)methyl)-N-(4-(5-(trifluoromethyl)-1,2,4-oxadiazol-3-yl)phenyl)piperidine-1-carboxamide]	0%	94%	28%			
NC(=O)c1ccc(C(=O)NCC2CCCCN2C(=O)Nc2ccc(-c3noc(C(F)(F)F)n3)cc2)cc1 (stereo not drawn) [Example 22, N-((1-((4-(5-(trifluoromethyl)-1,2,4-oxadiazol-3-yl)phenyl)carbamoyl)piperidin-2-yl)methyl)terephthalamide]	2%	90%	6%			
COc1ccccc1C(=O)NCC1CCCCN1C(=O)Nc1ccc(-c2noc(C(F)(F)F)n2)cc1 (stereo not drawn) [Example 23]				4%	86%	41%
COc1cccc(C(=O)NCC2CCCCN2C(=O)Nc2ccc(-c3noc(C(F)(F)F)n3)cc2)c1 (stereo not drawn) [Example 24, 2-(((3-methoxybenzoyl)amino)methyl)-N-(4-(5-(trifluoromethyl)-1,2,4-oxadiazol-3-yl)phenyl)piperidine-1-carboxamide]	3%	88%	24%			
COc1ccc(C(=O)NCC2CCCCN2C(=O)Nc2ccc(-c3noc(C(F)(F)F)n3)cc2)cc1 (stereo not drawn) [Example 25, 2-(((4-methoxybenzoyl)amino)methyl)-N-(4-(5-(trifluoromethyl)-1,2,4-oxadiazol-3-yl)phenyl)piperidine-1-carboxamide]	2%	95%	12%			
O=C(NCC1CCCCN1C(=O)Nc1ccc(-c2noc(C(F)(F)F)n2)cc1)c1cccc(O)c1 (stereo not drawn) [Example 26, 2-(((3-hydroxybenzoyl)amino)methyl)-N-(4-(5-(trifluoromethyl)-1,2,4-oxadiazol-3-yl)phenyl)piperidine-1-carboxamide]	2%	94%	42%			
O=C(NCC1CCCCN1C(=O)Nc1ccc(-c2noc(C(F)(F)F)n2)cc1)c1ccc(O)cc1 (stereo not drawn) [Example 27, 2-(((4-hydroxybenzoyl)amino)methyl)-N-(4-(5-(trifluoromethyl)-1,2,4-oxadiazol-3-yl)phenyl)piperidine-1-carboxamide]	3%	93%	37%			
